According to patent US20120121540A1 (priority 2007, published 2012):

assay: HCV replicon assay (luciferase reporter, ET cell line); type: cell-based; settings: Hepatitis C virus, HCV replicon luciferase activity in ET cells
Procedure, shortened: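 ET cells carry a stable luciferase-ubiquitin-neo/NS3-5B subgenomic HCV replicon with adaptive mutations. Compounds (0.1 nM to […], 0.5% DMSO) were added 24 h after plating, and luciferase was read 48-72 h later. EC50 came from 10-point 2-fold dilutions fitted to a Hill equation; TC50 was measured in parallel by WST-1.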

Structure (SMILES)	inhibition at 10 µM
N#Cc1ccccc1C1CCN(C(=O)c2nc3c(C(F)(F)F)cc(-c4cn[nH]c4)cn3c2Cl)CC1 [Compound 607, 2-{1-[3-Chloro-6-(1H-pyrazol-4-yl)-8-trifluoromethyl-imidazo[1,2-a]pyridine-2-carbonyl]-piperidin-4-yl}-benzonitrile]	92.2%
O=C(c1nc2c(C(F)(F)F)cc(-c3ccoc3)cn2c1Cl)N1CCC(c2nccs2)CC1 [Compound 556, (3-Chloro-6-furan-3-yl-8-trifluoromethyl-imidazo[1,2-a]pyridin-2-yl)-(4-thiazol-2-yl-piperidin-1-yl)-methanone]	99.5%
O=C(NCc1cccs1)c1nc2c(C(F)(F)F)cc(-c3cn[nH]c3)cn2c1-c1cn[nH]c1 [Compound 485, 3,6-Bis-(1H-pyrazol-4-yl)-8-trifluoromethyl-imidazo[1,2-a]pyridine-2-carboxylic acid (thiophen-2-ylmethyl)-amide]	58.9%
O=C(c1nc2c(C(F)(F)F)cc(-c3ccoc3)cn2c1Cl)N1CC(NS(=O)(=O)c2cccs2)C1 [Compound 499, Thiophene-2-sulfonic acid [1-(3-chloro-6-furan-3-yl-8-trifluoromethyl-imidazo[1,2-a]pyridine-2-carbonyl)-azetidin-3-yl]-amide]	93.4%
COC(=O)[C@H]1[C@@H](c2ccccc2)CCN1C(=O)c1nc2c(C(F)(F)F)cc(-c3ccoc3)cn2c1Cl (stereo in doubt) [Compound 227, 1-(3-Chloro-6-furan-3-yl-8-trifluoromethyl-imidazO [1,2-a]pyridine-2-carbonyl)-3-phenyl-pyrrolidine-2-carboxylic Acid Methyl Ester]	49.2%
O=C(c1nc2c(C(F)(F)F)cc(-c3ccoc3)cn2c1Cl)N1CCN(c2ccncc2)CC1 [Compound 533, (3-Chloro-6-furan-3-yl-8-trifluoromethyl-imidazo[1,2-a]pyridine-2-yl)-[4-pyridin-4-yl-piperazin-1-yl]-methanone]	23.4%
O=C(c1nc2c(C(F)(F)F)cc(-c3ccoc3)cn2c1Cl)N1CC=C(c2ccoc2)CC1 [Compound 575, (3-Chloro-6-furan-3-yl-8-trifluoromethyl-imidazo[1,2-a]pyridine-2-yl)-(4-furan-3-yl-3,6-dihydro-2H-pyridin-1-yl)-methanone]	94.3%
O=C(c1nc2c(C(F)(F)F)cc(-c3ccco3)cn2c1Cl)N1CCC(c2ccccc2)CC1 [Compound 218, (3-Chloro-6-furan-2-yl-8-trifluoromethyl-imidazo[1,2-a]pyridin-2-yl)-(4-phenyl-piperidin-1-yl)-methanone]	63.5%
CN(C)CCNC(=O)[C@H]1[C@@H](c2ccccc2)CCN1C(=O)c1nc2c(C(F)(F)F)cc(-c3ccoc3)cn2c1Cl (stereo in doubt) [Compound 230, 1-(3-Chloro-6-furan-3-yl-8-trifluoromethyl-imidazo[1,2-a]pyridine-2-carbonyl)-3-phenyl-pyrrolidine-2-carboxylic Acid (2-dimethylamino-ethyl)-amide]	53.4%
CC(C)c1cc(-c2ccccc2)cn2c(Br)c(C(=O)N3CCC(c4cccc(F)c4)C3)nc12 (stereo not shown) [Compound 647, (3-Bromo-8-isopropyl-6-phenyl-imidazo[1,2-a]pyridin-2-yl)-[3-(3-fluoro-phenyl)-pyrrolidin-1-yl]-methanone]	58.6%
O=C(NCc1cccs1)c1nc2c(C(F)(F)F)cc(-c3ccc(Cl)s3)cn2c1Cl [Compound 176, 3-Chloro-6-(5-chloro-thiophen-2-yl)-8-trifluoromethyl-imidazo[1,2-a]pyridine-2-carboxylic acid (thiophen-2-ylmethyl)-amide]	96.8%
O=C(c1nc2c(C(F)(F)F)cc(-c3ccoc3)cn2c1Cl)N1CC=C(c2cn[nH]c2)CC1 [Compound 579, (3-Chloro-6-furan-3-yl-8-trifluoromethyl-imidazo[1,2-a]pyridin-2-yl)-[4-(1-1H-pyrazol-4-yl)-3,6-dihydro-2H-pyridin-1-yl)-methanone]	97.6%
O=C(NCc1cccs1)c1nc2c(C(F)(F)F)cc(-c3ccsc3)cn2c1-c1ccsc1 [Compound 200, 3,6-Di-thiophen-3-yl-8-trifluoromethyl-imidazo[1,2-a]pyridine-2-carboxylic acid (thiophen-2-ylmethyl)-amide]	91.6%
O=C(O)Cc1c(C(=O)N2CCC(c3ccc(F)cc3)C2)nc2c(C(F)(F)F)cc(-c3ccoc3)cn12 (stereo not shown) [Compound 236, {2-[3-(4-Fluoro-phenyl)-pyrrolidine-1-carbonyl]-6-furan-3-yl-8-trifluoromethyl-imidazo[1,2-a]pyridin-3-yl}-acetic Acid]	49%
O=C(NCc1cccs1)c1nc2c(C(F)(F)F)cc(-c3ccoc3)cn2c1[N+](=O)[O-] [Compound 232, 6-Furan-3-yl-3-nitro-8-trifluoromethyl-imidazo[1,2-a]pyridine-2-carboxylic Acid (thiophen-2-ylmethyl)-amide]	56.6%
O=C(NCc1ccco1)c1nc2c(C(F)(F)F)cc(-c3ccco3)cn2c1Cl [Compound 158, 3-Chloro-6-furan-2-yl-8-trifluoromethyl-imidazo[1,2-a]pyridine-2-carboxylic acid (furan-2-ylmethyl)-amide]	88.5%

Structure (SMILES)	inhibition at 10 µM
O=C(c1cn2cc(-c3ccoc3)cc(C(F)(F)F)c2n1)N1CCC(c2ccc(F)cc2)C1 (stereo not shown) [Compound 251, [3-(4-Fluoro-phenyl)-pyrrolidin-1-yl]-(6-furan-3-yl-8-trifluoromethyl-imidazo[1,2-a]pyridin-2-yl)-methanone]	93.4%
Cc1cc(-c2ccccc2)cc2cc(C(=O)NCc3cccs3)nn12 [Compound 114, 7-Methyl-5-phenyl-pyrazolo[1,5-a]pyridine-2-carboxylic acid (thiophen-2-ylmethyl)-amide]	37.9%
O=C(c1nc2c(C(F)(F)F)cc(-c3ccoc3)cn2c1Cl)N1CCC(c2ccc(F)cc2)C1 (stereo not shown) [Compound 233, (3-Chloro-6-furan-3-yl-8-trifluoromethyl-imidazo[1,2-a]pyridin-2-yl)-[3-(4-fluoro-phenyl)-pyrrolidin-1-yl]-methanone]	90.6%
Cn1nccc1C1=CCN(C(=O)c2nc3c(C(F)(F)F)cc(-c4ccoc4)cn3c2Cl)CC1 [Compound 586, (3-Chloro-6-furan-3-yl-8-trifluoromethyl-imidazo[1,2-a]pyridine-2-yl)-[4-(2-methyl-2H-pyrazol-3-yl)-3,6-dihydro-2H-pyridin-1-yl]-methanone]	86%
O=C(CNC(=O)c1nc2c(C(F)(F)F)cc(-c3ccoc3)cn2c1Cl)c1cccc(F)c1 [Compound 409, 3-Chloro-6-furan-3-yl-8-trifluoromethyl-imidazo[1,2-a]pyridine-2-carboxylic Acid[2-(3-fluoro-phenyl)-2-oxo-ethyl]-amide]	46.6%
O=C(c1cn2cc(-c3ccoc3)cc(C(F)(F)F)c2n1)N1CCC(c2cccc(F)c2)C1 (stereo not shown) [Compound 638, [3-(3-Fluoro-phenyl)-pyrrolidin-1-yl]-(6-furan-3-yl-8-trifluoromethyl-imidazo[1,2-a]pyridin-2-yl)-methanone]	98.5%
O=C(c1nc2c(C(F)(F)F)cc(-c3cn[nH]c3)cn2c1Br)N1CC=C(c2cccc(F)c2)C1 [Compound 437, [3-Bromo-6-(1H-pyrazol-4-yl)-8-trifluoromethyl-imidazo[1,2-a]pyridin-2-yl]-[3-(3-fluoro-phenyl)-2,5-dihydro-pyrrol-1-yl]-methanone]	96.9%
O=C(c1nc2c(C(F)(F)F)cc(-c3ccoc3)cn2c1Cl)N1CCC(c2ccccc2)C1 (stereo not shown) [Compound 260, (3-Chloro-6-furan-3-yl-8-trifluoromethyl-imidazo[1,2-a]pyridin-2-yl)-(3-phenyl-pyrrolidin-1-yl)-methanone]	96%
O=C(c1nc2c(C(F)(F)F)cc(-c3ccoc3)cn2c1Cl)N1CCC(c2cccs2)CC1 [Compound 598, [3-chloro-6-(furan-3-yl)-8-(trifluoromethyl)imidazo[1,2-a]pyridin-2-yl][4-(thiophen-2-yl)piperidin-1-yl]methanone]	95.9%
CC(C)(C)OC(=O)n1cccc1-c1cc(C(F)(F)F)c2nc(C(=O)NCc3cccs3)c(Cl)n2c1 [Compound 281, 2-{3-Chloro-2-[(thiophen-2-ylmethyl)-carbamoyl]-8-trifluoromethyl-imidazo[1,2-a]pyridin-6-yl}-pyrrole-1-carboxylic Acid Tert-butyl Ester]	69.3%
CCn1c(C(=O)N2CCC(c3ccc(F)cc3)C2)nc2c(C(F)(F)F)cc(-c3ccoc3)cc21 (stereo not shown) [Compound 352, (1-Ethyl-6-furan-3-yl-4-trifluoromethyl-1H-benzoimidazol-2-yl)-[3-(4-fluoro-phenyl)-pyrrolidin-1-yl]-methanone]	49.8%
O=C(c1nc2c(C(F)(F)F)cc(-c3cc[nH]c3)cn2c1Cl)N1CCC(c2cccc(F)c2)C1 (stereo not shown) [Compound 524, [3-Chloro-6-(1H-pyrrol-3-yl)-8-trifluoromethyl-imidazo[1,2-a]pyridin-2-yl]-[3-(3-fluoro-phenyl)-pyrrolidin-1-yl]methanone]	91%
O=C(c1nc2c(C(F)(F)F)cc(-c3ccoc3)cn2c1Cl)N1CCC(c2ccc(C(F)(F)F)cc2)C1 (stereo not shown) [Compound 336, (3-chloro-6-furan-3-yl-8-trifluoromethyl-imidazo[1,2-a]pyridin-2-yl)-[3-(4-trifluoromethyl-phenyl)-pyrrolidin-1-yl]-methanone]	73.2%
O=C(c1nc2c(C(F)(F)F)cc(-c3ccoc3)cn2c1Cl)N1C=C(c2cscn2)CCC1 [Compound 588, (3-Chloro-6-furan-3-yl-8-trifluoromethyl-imidazo[1,2-a]pyridin-2-yl)-(5-thiazol-4-yl-3,4-dihydro-2H-pyridin-1-yl)-methanone]	84.5%
O=C(c1nc2c(C(F)(F)F)cc(-c3ccoc3)cn2c1Cl)N1CC=C(c2cc[nH]c2)CC1 [Compound 583, (3-Chloro-6-furan-3-yl-8-trifluoromethyl-imid azo[1,2-a]pyridin-2-yl)-[4-(1H-pyrrol-3-yl)-3,6-dihydro-2H-pyridin-1-yl]-methanone]	67.9%
